Measurements published in publication PMC11606603, “The membrane domains of mammalian adenylyl cyclases are lipid receptors” (eLife, 2024).
Where “and” joins values, the source holds several entries; their conditions need not be identical. Equal values may be shown once.

How the values were obtained:
Assay type in all cases: biochemical
mAC1 = target: T1, mAC1 (Homo sapiens, UniProt Q08828); assay: AC assay, Gsα-stimulated mAC1 in membranes from transfected HEK293 cells; settings: 20 µM fatty acid; 300 nM Gsα; single experiments
T1 construct: Human mAC genes were from GenScript and fitted with a C-terminal FLAG-tag; FLAG (C); made in house; host or cells: HEK293, permanently transfected; membrane preparation
Summary of the method: (§1)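 cAMP formation was quantified by HTRF against a cAMP standard curve, with EC50 or IC50 derived by curve fitting. Reactions contained 1 mM ATP, 2 mM MgCl2, 3 mM creatine phosphate, 60 μg/ml creatine kinase and 50 mM MOPS pH 7.5, using membranes of stably transfected HEK293 cells carrying FLAG-tagged human AC.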

mAC2 = target: T2, mAC2 (Homo sapiens, UniProt Q08462); assay: AC assay, Gsα-stimulated mAC2 in membranes from transfected HEK293 cells; settings: for mAC2 activity [%] (100% = 300nM Gsα stimulation); 20µM fatty acid concentration: Figure 5-figure supplement 1 left
T2 construct: Human mAC genes were from GenScript and fitted with a C-terminal FLAG-tag; FLAG (C); made in house; host or cells: HEK293, permanently transfected; membrane preparation
T2 sequence (Q08462 whole entry): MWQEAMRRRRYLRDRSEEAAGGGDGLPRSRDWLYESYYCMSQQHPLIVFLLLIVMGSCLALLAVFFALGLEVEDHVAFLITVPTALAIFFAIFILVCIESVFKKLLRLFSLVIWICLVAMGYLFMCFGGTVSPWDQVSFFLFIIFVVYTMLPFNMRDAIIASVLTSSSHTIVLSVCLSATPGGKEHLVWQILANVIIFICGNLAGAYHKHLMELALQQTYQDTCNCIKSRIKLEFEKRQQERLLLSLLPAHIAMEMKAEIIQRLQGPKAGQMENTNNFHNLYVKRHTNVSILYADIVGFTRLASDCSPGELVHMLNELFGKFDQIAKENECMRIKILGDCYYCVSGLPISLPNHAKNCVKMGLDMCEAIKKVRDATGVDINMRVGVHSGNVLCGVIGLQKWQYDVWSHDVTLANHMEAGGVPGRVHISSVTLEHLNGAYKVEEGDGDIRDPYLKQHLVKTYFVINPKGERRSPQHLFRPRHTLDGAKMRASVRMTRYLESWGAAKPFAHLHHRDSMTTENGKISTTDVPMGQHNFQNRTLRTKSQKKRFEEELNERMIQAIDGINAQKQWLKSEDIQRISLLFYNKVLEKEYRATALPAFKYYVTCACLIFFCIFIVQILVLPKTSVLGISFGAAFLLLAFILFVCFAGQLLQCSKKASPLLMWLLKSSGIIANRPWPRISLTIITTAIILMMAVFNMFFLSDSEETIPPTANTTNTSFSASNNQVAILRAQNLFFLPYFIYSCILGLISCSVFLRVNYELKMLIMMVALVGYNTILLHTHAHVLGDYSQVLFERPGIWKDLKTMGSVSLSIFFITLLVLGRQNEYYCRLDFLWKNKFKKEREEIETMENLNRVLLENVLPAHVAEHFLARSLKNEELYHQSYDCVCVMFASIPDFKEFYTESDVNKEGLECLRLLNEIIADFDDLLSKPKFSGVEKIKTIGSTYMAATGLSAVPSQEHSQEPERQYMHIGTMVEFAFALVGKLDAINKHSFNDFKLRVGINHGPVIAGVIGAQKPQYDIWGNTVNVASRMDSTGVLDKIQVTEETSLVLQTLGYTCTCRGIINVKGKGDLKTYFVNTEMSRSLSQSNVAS
T2 sequence (P63092 2-394 Q227L partner): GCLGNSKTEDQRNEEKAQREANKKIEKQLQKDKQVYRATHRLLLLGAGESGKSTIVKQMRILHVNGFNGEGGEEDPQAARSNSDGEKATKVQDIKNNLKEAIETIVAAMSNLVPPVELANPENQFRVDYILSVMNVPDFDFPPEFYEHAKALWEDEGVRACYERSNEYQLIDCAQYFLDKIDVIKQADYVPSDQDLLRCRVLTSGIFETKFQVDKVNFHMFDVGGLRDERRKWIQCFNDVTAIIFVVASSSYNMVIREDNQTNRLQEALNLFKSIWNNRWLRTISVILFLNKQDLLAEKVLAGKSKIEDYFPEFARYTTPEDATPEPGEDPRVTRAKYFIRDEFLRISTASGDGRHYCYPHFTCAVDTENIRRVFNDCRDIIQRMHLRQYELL
Summary of the method: as §1

mAC3 = target: T3, mAC3 (Homo sapiens, UniProt O60266); assay: AC assay, Gsα-stimulated mAC3 in membranes from transfected HEK293 cells; settings: for mAC3 activity [%] (100% = 300nM Gsα stimulation): fatty acid 20 µM, individual experiments
T3 construct: Human mAC genes were from GenScript and fitted with a C-terminal FLAG-tag; FLAG (C); made in house; host or cells: HEK293, permanently transfected; membrane preparation
T3 sequence (O60266 whole entry): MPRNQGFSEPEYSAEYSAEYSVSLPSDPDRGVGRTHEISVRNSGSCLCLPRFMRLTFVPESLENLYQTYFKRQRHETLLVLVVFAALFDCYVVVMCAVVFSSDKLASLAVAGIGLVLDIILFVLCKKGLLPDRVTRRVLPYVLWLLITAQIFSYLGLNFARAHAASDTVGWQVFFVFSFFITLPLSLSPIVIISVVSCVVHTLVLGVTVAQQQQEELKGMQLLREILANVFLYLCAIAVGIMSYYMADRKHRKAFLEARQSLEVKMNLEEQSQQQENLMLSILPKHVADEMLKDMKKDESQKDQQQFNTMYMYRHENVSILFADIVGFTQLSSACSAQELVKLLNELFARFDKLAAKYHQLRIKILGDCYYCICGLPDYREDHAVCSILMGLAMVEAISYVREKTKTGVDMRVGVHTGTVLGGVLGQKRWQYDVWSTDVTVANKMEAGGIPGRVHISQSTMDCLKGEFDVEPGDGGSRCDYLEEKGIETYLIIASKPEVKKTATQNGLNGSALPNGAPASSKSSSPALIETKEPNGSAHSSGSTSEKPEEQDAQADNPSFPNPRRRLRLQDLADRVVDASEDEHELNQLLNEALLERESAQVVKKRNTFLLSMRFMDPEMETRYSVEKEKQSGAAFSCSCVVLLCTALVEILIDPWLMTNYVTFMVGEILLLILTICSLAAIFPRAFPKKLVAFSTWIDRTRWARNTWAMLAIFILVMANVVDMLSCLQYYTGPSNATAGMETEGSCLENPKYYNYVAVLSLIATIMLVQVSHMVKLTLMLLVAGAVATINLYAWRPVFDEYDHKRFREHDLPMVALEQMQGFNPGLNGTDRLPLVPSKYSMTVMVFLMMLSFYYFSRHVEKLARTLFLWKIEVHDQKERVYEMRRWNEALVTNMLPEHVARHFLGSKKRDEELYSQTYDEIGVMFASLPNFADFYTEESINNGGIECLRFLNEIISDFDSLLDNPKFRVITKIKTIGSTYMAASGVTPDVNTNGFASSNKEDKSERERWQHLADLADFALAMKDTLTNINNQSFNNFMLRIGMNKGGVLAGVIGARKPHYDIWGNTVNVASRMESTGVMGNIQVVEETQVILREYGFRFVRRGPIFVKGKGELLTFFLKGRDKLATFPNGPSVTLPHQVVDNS
T3 sequence (P63092 whole entry Q227L partner): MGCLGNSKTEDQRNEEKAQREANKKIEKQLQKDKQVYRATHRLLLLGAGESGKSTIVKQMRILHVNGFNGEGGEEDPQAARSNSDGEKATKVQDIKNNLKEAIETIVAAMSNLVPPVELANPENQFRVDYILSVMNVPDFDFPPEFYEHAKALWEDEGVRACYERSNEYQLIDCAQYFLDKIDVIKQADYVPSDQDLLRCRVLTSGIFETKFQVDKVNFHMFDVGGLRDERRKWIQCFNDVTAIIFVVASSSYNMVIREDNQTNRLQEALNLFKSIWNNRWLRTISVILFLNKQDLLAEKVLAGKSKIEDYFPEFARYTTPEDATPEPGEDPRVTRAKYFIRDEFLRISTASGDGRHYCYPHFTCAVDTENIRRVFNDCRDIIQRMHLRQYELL
Summary of the method: as §1

mAC4 = target: T4, mAC4 (Homo sapiens, UniProt Q8NFM4); assay: AC assay, Gsα-stimulated mAC4 in membranes from transfected HEK293 cells; settings: 20 µM fatty acid; 300 nM Gsα; single experiments
T4 construct: Human mAC genes were from GenScript and fitted with a C-terminal FLAG-tag; FLAG (C); made in house; host or cells: HEK293, permanently transfected; membrane preparation
T4 sequence (Q8NFM4 1-1077): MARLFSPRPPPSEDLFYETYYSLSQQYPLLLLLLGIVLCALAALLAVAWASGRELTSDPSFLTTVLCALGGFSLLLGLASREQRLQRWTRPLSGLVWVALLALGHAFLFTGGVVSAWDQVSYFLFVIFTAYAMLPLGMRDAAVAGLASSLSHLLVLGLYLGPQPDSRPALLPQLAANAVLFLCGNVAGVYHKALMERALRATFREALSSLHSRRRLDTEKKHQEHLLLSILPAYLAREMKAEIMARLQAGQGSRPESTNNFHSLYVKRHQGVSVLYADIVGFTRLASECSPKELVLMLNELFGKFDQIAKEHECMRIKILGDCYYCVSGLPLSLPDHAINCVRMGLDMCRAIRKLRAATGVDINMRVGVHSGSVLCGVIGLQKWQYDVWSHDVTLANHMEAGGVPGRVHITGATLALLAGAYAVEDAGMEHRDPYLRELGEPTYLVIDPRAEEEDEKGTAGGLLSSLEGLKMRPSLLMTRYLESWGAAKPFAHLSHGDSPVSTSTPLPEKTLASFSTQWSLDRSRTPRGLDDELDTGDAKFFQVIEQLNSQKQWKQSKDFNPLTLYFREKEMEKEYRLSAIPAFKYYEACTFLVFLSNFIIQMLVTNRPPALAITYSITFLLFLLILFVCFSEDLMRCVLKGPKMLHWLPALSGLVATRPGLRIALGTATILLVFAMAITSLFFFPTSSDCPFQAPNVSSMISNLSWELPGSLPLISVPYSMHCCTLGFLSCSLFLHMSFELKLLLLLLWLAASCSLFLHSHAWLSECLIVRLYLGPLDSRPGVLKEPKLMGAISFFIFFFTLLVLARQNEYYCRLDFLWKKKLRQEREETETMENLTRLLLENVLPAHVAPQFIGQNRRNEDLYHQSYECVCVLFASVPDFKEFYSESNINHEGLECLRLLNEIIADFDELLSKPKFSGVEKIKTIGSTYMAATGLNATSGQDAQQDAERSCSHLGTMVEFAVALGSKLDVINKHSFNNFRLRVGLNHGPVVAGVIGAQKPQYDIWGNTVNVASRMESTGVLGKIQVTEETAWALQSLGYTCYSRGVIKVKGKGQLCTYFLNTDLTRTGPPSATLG
Summary of the method: as §1

mAC5 = target: T5, mAC5 (Homo sapiens, UniProt O95622); assay: AC assay, Gsα-stimulated mAC5 in membranes from transfected HEK293 cells; settings: 20µM fatty acid concentration
T5 construct: Human mAC genes were from GenScript and fitted with a C-terminal FLAG-tag; FLAG (C); made in house; host or cells: HEK293, permanently transfected; membrane preparation
Summary of the method: as §1

mAC6 = target: T6, mAC6 (Homo sapiens, UniProt O43306); assay: AC assay, Gsα-stimulated mAC6 in membranes from transfected HEK293 cells; settings: 20µM fatty acid concentration
T6 construct: Human mAC genes were from GenScript and fitted with a C-terminal FLAG-tag; FLAG (C); made in house; host or cells: HEK293, permanently transfected; membrane preparation
Summary of the method: as §1

mAC7 = target: T7, mAC7 (Homo sapiens, UniProt P51828); assay: AC assay, Gsα-stimulated mAC7 in membranes from transfected HEK293 cells; settings: Figure 5-figure supplement 2 left, 20 µM
T7 construct: Human mAC genes were from GenScript and fitted with a C-terminal FLAG-tag; FLAG (C); made in house; host or cells: HEK293, permanently transfected; membrane preparation
Summary of the method: as §1

mAC8 = target: T8, mAC8 (Homo sapiens, UniProt P40145); assay: AC assay, Gsα-stimulated mAC8 in membranes from transfected HEK293 cells; settings: 20µM fatty acid concentration
T8 construct: Human mAC genes were from GenScript and fitted with a C-terminal FLAG-tag; FLAG (C); made in house; host or cells: HEK293, permanently transfected; membrane preparation
Description: hAC sequences were from NCBI were: ADCY1: NM_021116.3; ADCY2: NM_020546.2; ADCY3: NM_004036.4; ADCY4: NM_001198568.2; ADCY5: NM_183357.2; ADCY6: NM_015270.4; ADCY7: NM_001114.4; ADCY8: NM_001115.2; ADCY9: NM_001116.3. Human mAC genes were from GenScript and fitted with a C-terminal FLAG-tag. […] The gene was synthesized by GenScript. HEK293 cells were maintained in Dulbeccos Modified Eagle Medium (DMEM) with 10% fetal bovine serum at 37°C and 5% CO2. Transfection with AC plasmids was with PolyJet (SignaGen, Frederick, MD, USA). Permanent cell lines were generated by selection for 7 days with 600 µg/ml G418 and maintained with 300 µg/ml For membrane preparation, cells were tyrpsinized, collected by centrifugation (3000 × g, 5 min) and lysed and homogenized in 20 mM HEPES, pH 7.5, 1 mM Ethylenediaminetetraacetic acid (EDTA), 2 mM MgCl2, 1 mM Dithiothreitol (DTT), one tablet of cOmplete, EDTA-free (per 50 ml) and 250 mM sucrose by 20 strokes in a potter homogenizer on ice. Debris was removed (5 min at 1000 × g, 0°C), membranes were collected at 100,000 × g, 60 min at 0°C, suspended and stored at −80°C in 20 mM MOPS, pH 7.5, 0.5 mM EDTA, 2 mM MgCl2. […] Three cerebral cortices were dissected and homogenized in 4.5 ml cold 48 mM Tris–HCl, pH 7.4, 12 mM MgC1_2, and 0.1 mM Ethylene glycol-bis(β-aminoethyl ether)-N,N,N′,N′-tetraacetic acid (EGTA) with a Polytron hand disperser (Kinematica AG, Switzerland). […] The pellet was washed once with 5 ml 1 mM KHCO3. The final suspension in 2 ml 1 mM KHCO3 was stored in aliquots at −80°C.
In a volume of 10 μl, AC activities were measured using 1 mM ATP, 2 mM MgCl2, 3 mM creatine phosphate, 60 μg/ml creatine kinase, and 50 mM MOPS pH 7.5. The cAMP assay kit from Cisbio (Codolet, France) was used for detection according to the supplier’s instructions. For each assay, a cAMP standard curve was established. EC50 and IC50 values were calculated by GraphPad Prism version 8.4.3 for Windows, GraphPad Software, San Diego, CA, USA, https://www.graphpad.com .

mAC9 = target: T9, mAC9 (Homo sapiens, UniProt O60503); assay: AC assay, Gsα-stimulated mAC9 in membranes from transfected HEK293 cells; settings: for mAC9 activity (%);(100% = Gsα stimulation) stimulated by 300nM Gsα / mAC9 activity [%] (100% = 300nM Gsα stimulation); 20µM fatty acid concentration: single experiments
T9 construct: Human mAC genes were from GenScript and fitted with a C-terminal FLAG-tag; FLAG (C); made in house; host or cells: HEK293, permanently transfected; membrane preparation
T9 sequence (O60503 whole entry): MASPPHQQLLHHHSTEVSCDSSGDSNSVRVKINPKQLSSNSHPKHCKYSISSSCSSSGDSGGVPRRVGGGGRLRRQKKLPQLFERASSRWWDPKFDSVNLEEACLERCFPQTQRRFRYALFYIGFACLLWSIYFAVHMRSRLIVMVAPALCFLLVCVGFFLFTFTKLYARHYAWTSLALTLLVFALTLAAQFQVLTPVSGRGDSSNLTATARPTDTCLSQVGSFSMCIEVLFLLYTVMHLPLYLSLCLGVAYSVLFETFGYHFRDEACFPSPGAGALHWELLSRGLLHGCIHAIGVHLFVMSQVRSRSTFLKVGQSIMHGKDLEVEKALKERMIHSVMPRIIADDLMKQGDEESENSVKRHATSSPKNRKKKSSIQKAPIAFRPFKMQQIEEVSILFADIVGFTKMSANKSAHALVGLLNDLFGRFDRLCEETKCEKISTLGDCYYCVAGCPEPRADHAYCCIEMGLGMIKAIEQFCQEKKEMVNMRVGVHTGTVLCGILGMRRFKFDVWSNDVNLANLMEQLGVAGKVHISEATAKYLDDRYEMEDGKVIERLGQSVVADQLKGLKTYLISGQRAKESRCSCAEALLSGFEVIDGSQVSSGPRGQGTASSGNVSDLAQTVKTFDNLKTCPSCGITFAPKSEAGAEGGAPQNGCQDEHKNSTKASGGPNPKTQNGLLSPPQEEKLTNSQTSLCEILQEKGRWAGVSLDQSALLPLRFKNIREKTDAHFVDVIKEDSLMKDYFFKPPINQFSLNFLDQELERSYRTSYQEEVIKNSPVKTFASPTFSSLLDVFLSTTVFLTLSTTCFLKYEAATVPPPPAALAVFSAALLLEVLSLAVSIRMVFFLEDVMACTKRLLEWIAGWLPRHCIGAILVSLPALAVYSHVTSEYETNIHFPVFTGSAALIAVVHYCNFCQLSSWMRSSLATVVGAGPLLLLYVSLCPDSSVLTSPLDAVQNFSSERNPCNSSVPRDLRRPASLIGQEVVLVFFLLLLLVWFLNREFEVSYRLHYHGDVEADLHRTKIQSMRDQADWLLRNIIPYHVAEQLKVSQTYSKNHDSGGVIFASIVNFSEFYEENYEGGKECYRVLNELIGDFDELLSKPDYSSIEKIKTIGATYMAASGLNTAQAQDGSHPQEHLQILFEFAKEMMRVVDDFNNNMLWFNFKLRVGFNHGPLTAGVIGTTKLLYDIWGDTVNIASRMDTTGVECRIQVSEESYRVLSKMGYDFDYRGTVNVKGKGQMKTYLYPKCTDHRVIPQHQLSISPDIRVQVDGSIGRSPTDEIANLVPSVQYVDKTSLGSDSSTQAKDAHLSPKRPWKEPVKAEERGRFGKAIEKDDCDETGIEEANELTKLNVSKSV
T9 sequence (P63092 2-394 Q227L partner): as the sequence (P63092 2-394 Q227L partner) above
Summary of the method: as §1

Row | SMILES | mAC1 activity [%] (100% = 300nM Gsα stimulation); 20µM fatty acid concentration (mAC1) | mAC2 activity [%] (100% = 300nM Gsα stimulation); 20µM fatty acid concentration (mAC2; 20 µM) | mAC3 activity [%] (100% = 300nM Gsα stimulation) (mAC3) | mAC4 activity [%] (100% = 300nM Gsα stimulation); 20µM fatty acid concentration (mAC4) | mAC5 activity [%] (100% = 300nM Gsα stimulation) (mAC5) | mAC6 activity [%] (100% = 300nM Gsα stimulation) (mAC6) | mAC7 activity [%] (100% = 300nM Gsα stimulation); 20µM fatty acid concentration (mAC7) | mAC8 activity [%] (100% = 300nM Gsα stimulation) (mAC8) | mAC9 activity [%] (100% = 300nM Gsα stimulation); 20µM fatty acid concentration (mAC9) | further results
1 | CCCCCC/C=C\CCCCCCCCCC(=O)O [cis-Vaccenic acid, cis-Vaccenic ((11E)-octadecenoic) acid] | 61% and 67% and 86% | 243% and 149% and 146% and 170% and 233% | 429% and 498% and 460% and 363% and 411% | 78% and 66% and 107% | 124% and 95% | 91% and 114% | 148% and 179% | 107% and 123% |  | Effect of lipid on 300 nM Gsα-stimulated mAC2 (mAC2; 20 µM, in words): doubled; mAC2 activity (%);(100% = Gsα stimulation) stimulated by 300nM Gsα (mAC2; cis-Vaccenic acid 1 µM): 120% and 97% and 119% and 112% and 115%; mAC2 activity (%);(100% = Gsα stimulation) stimulated by 300nM Gsα (mAC2; cis-Vaccenic acid 3 µM): 117% and 107% and 130% and 128% and 95%; mAC2 activity (%);(100% = Gsα stimulation) stimulated by 300nM Gsα (mAC2; cis-Vaccenic acid 6 µM): 93% and 112% and 130% and 120% and 121%; mAC2 activity (%);(100% = Gsα stimulation) stimulated by 300nM Gsα (mAC2; cis-Vaccenic acid 10 µM): 141% and 119% and 166% and 123% and 169%; mAC2 activity (%);(100% = Gsα stimulation) stimulated by 300nM Gsα (mAC2; cis-Vaccenic acid 20 µM): 146% and 170% and 233% and 243% and 149%; EC50 (mAC2; enhancement of 300 nM Gsα-stimulated activity): 10.6 µM; activity at 0.3 µM (mAC2; read-out: mAC2 activity (%);(100% = Gsα stimulation) stimulated by 300nM Gsα, cis-Vaccenic acid 0.3 µM): 100%; Effect of lipid on 300 nM Gsα-stimulated mAC3 (mAC3; 20 µM, in words): efficient enhancers; mAC9 activity (%);(100% = Gsα stimulation) stimulated by 300nM Gsα (mAC9; 6 µM fatty acid): 116% and 153% and 119% and 113%; mAC9 activity (%);(100% = Gsα stimulation) stimulated by 300nM Gsα (mAC9; 8 µM fatty acid): 174%; EC50 (mAC9; enhancement of 300 nM Gsα-stimulated activity, read-out: EC50 for mAC9): 8.5 µM
2 | CCCCCCCCCCCCCCCCCC [Octadecane] | 96% and 100% | 74% and 87% | 67% and 79% | 71% and 92% | 82% and 128% | 80% and 141% | 87% and 68% | 129% and 109% | 70% and 95% | 
3 | CCCCCCCCCC(O)CCCCCCCC(=O)O (centres unmarked) [9-HSA, 9-Hydroxystearic acid] | 95% and 93% | 89% and 75% | 104% and 110% | 134% and 93% | 100% and 102% | 122% and 118% | 161% and 83% | 67% and 108% | 93% and 157% | 
4 | CCCC/C=C\CCCCCCCC(=O)O [Myristoleic acid, Myristoleic ((9Z)-tetradecenoic) acid] | 90% and 103% and 77% | 106% and 81% and 89% | 82% and 156% and 95% | 79% and 94% and 104% | 79% and 90% and 96% | 92% and 96% | 92% and 95% and 67% | 62% and 117% and 101% | 88% and 116% and 130% | 
